Results from patent US20240166622A1, “FLUORINATED QUINOLINE, QUINOXALINE AND BENZO[B][1,4]OXAZINE DERIVATIVES AS DIHYDROOROTATE DEHYDROGENASE (DHODH) INHIBITORS FOR THE TREATMENT OF CANCER, AUTOIMMUNE AND INFLAMMATORY DISEASES” (Janssen Biotech, Inc., priority 2019, published 2024).

How the values were obtained:
MOLM-13 cells = assay: MOLM-13 Cellular Assay; format: cell-based; conditions: Homo sapiens, 72 hours, cell viability by CellTiter-Glo
Procedure: MOLM-13 cells were obtained from DSMZ and were maintained in RPMI 1640+Glutamax+25 mM HEPES (Invitrogen, catalog number 72400) supplemented with 10% heat inactivated fetal bovine serum (FBS; Invitrogen, catalog number 16140). The day prior to assay set-up, cells were pelleted, resuspended in fresh media, counted, and cells were plated at 0.4×10^6 cell/mL in a T150 flask. On the day of the assay, cells were pelleted, resuspend in fresh media, counted, and seeded at 5,000 cells/well in white opaque 96-well tissue culture treated microplates (Perkin Elmer, catalog number 6005680). Cells were exposed to different concentrations of test compounds at 37° C., 5% CO2 for 72 hours immediately after seeding. Cell viability was acquired on a Perkin Elmer Envision 2104 multilabel reader using the CellTiter-Glo assay (Promega) according to the manufacturer's instructions.

human DHODH = human DHODH (Homo sapiens (Human), UniProt Q02127); assay: DHODH Enzymatic Assay; format: biochemical; conditions: purified human DHODH, DCIP absorbance, end-point mode
Procedure: To detect DHODH enzyme activities, dichloroindophenol (DCIP) is added as the final electron acceptor in the assay. DCIP can accept electrons from the reduced coenzyme Q generated in the assay, or from dihydroorotate (DHO) via FMN by binding presumably to the ubiquinone pocket. […] The assay buffer contained […], pH 7.5, 150 mM NaCl, 0.5 mM EDTA, and 0.1% Triton X-100 in MilliQ water. Substrate consisting of 20 mM DHO, 5 mM CoQ6, and 1 mM DCIP in assay buffer, initiates the reaction. […] Absorbance measurements were obtained using the BMG Phera Star plate-reading spectrophotomer. Purified human DHODH was purchased from Proteros (cat. No. PR-0044). Chemicals were purchased from Sigma-Aldrich, Teknova, and Avanti Polar Lipids. Liquid handling was performed using Labcyte Echo and Formulatrix Tempest.

Sequence of human DHODH (Q02127 whole entry): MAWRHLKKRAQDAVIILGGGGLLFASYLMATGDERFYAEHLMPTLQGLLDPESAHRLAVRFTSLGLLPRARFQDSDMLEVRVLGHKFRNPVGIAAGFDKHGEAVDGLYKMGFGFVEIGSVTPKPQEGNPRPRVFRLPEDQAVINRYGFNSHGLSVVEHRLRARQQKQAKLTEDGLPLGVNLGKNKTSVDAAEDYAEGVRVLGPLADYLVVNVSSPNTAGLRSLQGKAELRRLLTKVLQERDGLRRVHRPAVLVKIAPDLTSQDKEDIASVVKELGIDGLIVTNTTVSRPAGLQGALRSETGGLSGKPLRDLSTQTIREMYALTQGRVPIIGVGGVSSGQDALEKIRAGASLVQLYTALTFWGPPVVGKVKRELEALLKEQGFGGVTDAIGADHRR

IC50 (MOLM-13 cells): 100 nM
IC50 (human DHODH): 293 nM
Structure (SMILES): CCn1c(CO)nn(-c2ccc3c(c2)N([C@@H](C)C(F)(F)F)C(=O)C(c2c(F)cccc2Cl)N3)c1=O (stereo partly drawn) [Example 3, 3-(2-Chloro-6-fluorophenyl)-7-(4-ethyl-3-(hydroxymethyl)-5-oxo-4,5-dihydro-1H-1,2,4-triazol-1-yl)-1-((S)-1,1,1-trifluoropropan-2-yl)-3,4-dihydroquinoxalin-2(1H)-one]
